Experimental data reported in US9409905B2, “Antibacterial compounds and methods for use” (PTC THERAPEUTICS, INC., priority 2011, dated 2016).
≈ marks a conversion by molar mass, not a printed value.

Key:
[1] = system: E. coli ELZ4000; test: Antibacterial activity, MIC, multi-drug resistant clinical isolate (Table 3); format: cell-based; settings: Escherichia coli, ELZ4000, read-out: MIC ELZ4000
Outline: (§1)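 MIC (μg/mL) read as lowest concentration with no macroscopically visible growth, determined by microbroth dilution.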

[2] = system: E. coli ELZ4251; test: as above; format: cell-based; settings: Escherichia coli
Outline: as §1

[3] = system: E. coli 25922; test: Antibacterial activity, microbroth dilution MIC (Table 1); format: cell-based, Escherichia coli; settings: Escherichia coli; microbroth dilution; control Gram-negative E. coli 25922 strain; read-out: MIC, 25922
Outline: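 Each strain is exposed to test compound in a microbroth dilution series; visible growth is scored macroscopically, and the lowest growth-free concentration is recorded as MIC in μg/mL.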

[4] = system: Staphylococcus aureus (S. aureus) 29213; test: as above; format: cell-based; settings: microbroth dilution, Gram-positive S. aureus 29213, read-out: MIC, 29213
Outline: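 MIC (μg/mL) is taken as the lowest concentration with no macroscopically visible growth. Strains tested by microbroth dilution: Gram-positive S. aureus 29213, control Gram-negative E. coli 25922, and super-sensitive E. coli BAS849.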

[5] = system: Escherichia coli (E. coli) BAS849; test: as above; format: cell-based; settings: microbroth dilution, super sensitive Gram-negative E. coli BAS849, read-out: MIC, BAS849
Outline: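 Read-out: visual absence of growth. The lowest concentration meeting this gives the MIC, expressed in μg/mL, with microbroth dilution as the method.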

[6] = system: Moraxella catarrhalis (M. catarrhalis) 25238; test: Antibacterial activity, MIC (Table 7); format: cell-based
Text: (§2) The antibacterial activity from a microbroth dilution method may be presented as the minimum inhibitory concentration (MIC in μg/mL). The MIC value is the lowest concentration of drug which prevents macroscopically visible growth under test conditions.
(§3) Antibacterial activity of test compounds against the Gram-negative bacteria Haemophilus influenzae (H. influenzae) 49247 is shown in Table 6, Moraxella catarrhalis (M. catarrhalis) 25238 is shown in Table 7 and Neisseria meningitidis (N. meningitidis) 13090 is shown in Table 8.

[7] = system: E. coli LZ3111; test: Antibacterial activity, MIC, quinolone resistant strain (Table 2); format: cell-based; settings: Escherichia coli, LZ3111, read-out: MIC LZ3111
Outline: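 Broth microdilution. Read-out: MIC in μg/mL, taken as lowest concentration with no macroscopically visible growth.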

[8] = system: A. baumannii MXX2240; test: Antibacterial activity, MIC, resistant strain (Table 4); format: cell-based; settings: Acinetobacter baumannii, MXX2240; resistant A. baumannii MMX2240, multi-drug resistant clinical isolate; read-out: MIC, MMX2240
Outline: (§4)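 MIC in μg/mL by microbroth dilution, scored as the lowest level that suppresses visible growth.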

[9] = system: K. pneumoniae MXX1232; test: as above; format: cell-based; settings: Klebsiella pneumoniae, MXX1232; resistant K. pneumoniae MMX1232, multi-drug resistant clinical isolate; read-out: MIC, MMX1232
Outline: as §4

[10] = system: Neisseria meningitidis (N. meningitidis) 13090; test: Antibacterial activity, MIC (Table 8); format: cell-based
Outline: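 Broth microdilution MIC, read as the lowest drug concentration preventing macroscopically visible growth under test conditions and reported in μg/mL.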

[11] = system: Haemophilus influenzae (H. influenzae) 49247; test: Antibacterial activity, MIC (Table 6); format: cell-based
Text: as §2, §3

[12] = system: Klebsiella pneumoniae (K. pneumoniae) 35657; test: Antibacterial activity, MIC (Table 4); format: cell-based; settings: K. pneumoniae 35657, read-out: MIC, 35657
Outline: as §4

[13] = system: Acinetobacter baumannii (A. baumannii) BAA747; test: Antibacterial activity, MIC (Table 4); format: cell-based; settings: A. baumannii BAA747, read-out: MIC, BAA747
Outline: as §4

[14] = system: Pseudomonas aeruginosa (P. aeruginosa) 27853; test: Antibacterial activity, MIC (Table 5); format: cell-based; settings: P. aeruginosa 27853, read-out: MIC, 27853
Outline: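 Microbroth dilution; MIC (μg/mL) = lowest concentration with no macroscopically visible growth.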

SMILES: CCc1c(-c2ccc3c(c2)cc(CN2CCNCC2)n3C)[nH]c(=O)c(C(=O)O)c1O [Cpd 171, 5-ethyl-4-hydroxy-6-(1-methyl-2-(piperazin-1-ylmethyl)-1H-indol-5-yl)-2-oxo-1,2-dihydropyridine-3-carboxylic acid]
- MIC [1]: 12.5 to 150 µg/mL (≈ 30.5 to 365 µM)
- MIC [2]: 12.5 to 150 µg/mL (≈ 30.5 to 365 µM)
- MIC [3]: 1 to 3.5 µg/mL (≈ 2.44 to 8.53 µM)
- MIC [4]: 12.5 to 150 µg/mL (≈ 30.5 to 365 µM)
- MIC [5]: < 1 µg/mL
- MIC [6]: 3.5 to 12.5 µg/mL (≈ 8.53 to 30.5 µM)
- MIC [7]: 1 to 3.5 µg/mL (≈ 2.44 to 8.53 µM)
- MIC [8]: 12.5 to 150 µg/mL (≈ 30.5 to 365 µM)
- MIC [9]: 12.5 to 150 µg/mL (≈ 30.5 to 365 µM)
- MIC [10]: 1 to 3.5 µg/mL (≈ 2.44 to 8.53 µM)
- MIC [11]: 1 to 3.5 µg/mL (≈ 2.44 to 8.53 µM)
- MIC [12]: 1 to 3.5 µg/mL (≈ 2.44 to 8.53 µM)
- MIC [13]: 12.5 to 150 µg/mL (≈ 30.5 to 365 µM)
- MIC [14]: 12.5 to 150 µg/mL (≈ 30.5 to 365 µM)

SMILES: CCc1c(-c2ccc3c(c2)cc(CN2CCCC2C)n3C)[nH]c(=O)c(C(=O)O)c1O (stereo not drawn) [Cpd 173, 5-ethyl-4-hydroxy-6-(1-methyl-2-((2-methylpyrrolidin-1-yl)methyl)-1H-indol-5-yl)-2-oxo-1,2-dihydropyridine-3-carboxylic acid]
- MIC [1]: 12.5 to 150 µg/mL (≈ 30.5 to 366 µM)
- MIC [2]: 3.5 to 12.5 µg/mL (≈ 8.55 to 30.5 µM)
- MIC [3]: < 1 µg/mL
- MIC [4]: 3.5 to 12.5 µg/mL (≈ 8.55 to 30.5 µM)
- MIC [5]: < 1 µg/mL
- MIC [6]: < 1 µg/mL
- MIC [7]: 3.5 to 12.5 µg/mL (≈ 8.55 to 30.5 µM)
- MIC [8]: 12.5 to 150 µg/mL (≈ 30.5 to 366 µM)
- MIC [9]: 12.5 to 150 µg/mL (≈ 30.5 to 366 µM)
- MIC [10]: < 1 µg/mL
- MIC [11]: < 1 µg/mL
- MIC [12]: 1 to 3.5 µg/mL (≈ 2.44 to 8.55 µM)
- MIC [13]: 1 to 3.5 µg/mL (≈ 2.44 to 8.55 µM)
- MIC [14]: 12.5 to 150 µg/mL (≈ 30.5 to 366 µM)

SMILES: CCc1c(-c2ccc3c(c2)cc(CN2CC[C@H](N)C2)n3C)[nH]c(=O)c(C(=O)O)c1O [Cpd 180, (S)-6-(2-((3-aminopyrrolidin-1-yl)methyl)-1-methyl-1H-indol-5-yl)-5-ethyl-4-hydroxy-2-oxo-1,2-dihydropyridine-3-carboxylic acid]
- MIC [1]: 12.5 to 150 µg/mL (≈ 30.5 to 365 µM)
- MIC [2]: 3.5 to 12.5 µg/mL (≈ 8.53 to 30.5 µM)
- MIC [3]: 1 to 3.5 µg/mL (≈ 2.44 to 8.53 µM)
- MIC [4]: 12.5 to 150 µg/mL (≈ 30.5 to 365 µM)
- MIC [5]: < 1 µg/mL
- MIC [6]: 3.5 to 12.5 µg/mL (≈ 8.53 to 30.5 µM)
- MIC [7]: 1 to 3.5 µg/mL (≈ 2.44 to 8.53 µM)
- MIC [8]: 12.5 to 150 µg/mL (≈ 30.5 to 365 µM)
- MIC [9]: 12.5 to 150 µg/mL (≈ 30.5 to 365 µM)
- MIC [10]: 1 to 3.5 µg/mL (≈ 2.44 to 8.53 µM)
- MIC [11]: 1 to 3.5 µg/mL (≈ 2.44 to 8.53 µM)
- MIC [12]: 3.5 to 12.5 µg/mL (≈ 8.53 to 30.5 µM)
- MIC [13]: 12.5 to 150 µg/mL (≈ 30.5 to 365 µM)
- MIC [14]: 12.5 to 150 µg/mL (≈ 30.5 to 365 µM)

SMILES: CCc1c(-c2ccc3c(c2)cc(CN2CCC(NC)C2)n3C)[nH]c(=O)c(C(=O)O)c1O (stereo not drawn) [Cpd 181, 5-ethyl-4-hydroxy-6-(1-methyl-2-((3-(methylamino)pyrrolidin-1-yl)methyl)-1H-indol-5-yl)-2-oxo-1,2-dihydropyridine-3-carboxylic acid]
- MIC [1]: 12.5 to 150 µg/mL (≈ 29.4 to 353 µM)
- MIC [2]: 12.5 to 150 µg/mL (≈ 29.4 to 353 µM)
- MIC [3]: 1 to 3.5 µg/mL (≈ 2.36 to 8.24 µM)
- MIC [4]: 12.5 to 150 µg/mL (≈ 29.4 to 353 µM)
- MIC [5]: < 1 µg/mL
- MIC [6]: 1 to 3.5 µg/mL (≈ 2.36 to 8.24 µM)
- MIC [7]: 1 to 3.5 µg/mL (≈ 2.36 to 8.24 µM)
- MIC [8]: 12.5 to 150 µg/mL (≈ 29.4 to 353 µM)
- MIC [9]: 12.5 to 150 µg/mL (≈ 29.4 to 353 µM)
- MIC [10]: 1 to 3.5 µg/mL (≈ 2.36 to 8.24 µM)
- MIC [11]: 1 to 3.5 µg/mL (≈ 2.36 to 8.24 µM)
- MIC [12]: 1 to 3.5 µg/mL (≈ 2.36 to 8.24 µM)
- MIC [13]: 3.5 to 12.5 µg/mL (≈ 8.24 to 29.4 µM)
- MIC [14]: 12.5 to 150 µg/mL (≈ 29.4 to 353 µM)

SMILES: CCc1c(-c2ccc3c(c2)cc(CN2CC4CCCNC4C2)n3C)[nH]c(=O)c(C(=O)O)c1O (stereo not drawn) [Cpd 184, 5-ethyl-4-hydroxy-6-(1-methyl-2-((tetrahydro-1H-pyrrolo[3,4-b]pyridin-6(2H,7H,7aH)-yl)methyl)-1H-indol-5-yl)-2-oxo-1,2-dihydropyridine-3-carboxylic acid]
- MIC [1]: 12.5 to 150 µg/mL (≈ 27.7 to 333 µM)
- MIC [2]: 3.5 to 12.5 µg/mL (≈ 7.77 to 27.7 µM)
- MIC [3]: 1 to 3.5 µg/mL (≈ 2.22 to 7.77 µM)
- MIC [4]: 12.5 to 150 µg/mL (≈ 27.7 to 333 µM)
- MIC [5]: < 1 µg/mL
- MIC [6]: 1 to 3.5 µg/mL (≈ 2.22 to 7.77 µM)
- MIC [7]: 1 to 3.5 µg/mL (≈ 2.22 to 7.77 µM)
- MIC [8]: 12.5 to 150 µg/mL (≈ 27.7 to 333 µM)
- MIC [9]: 12.5 to 150 µg/mL (≈ 27.7 to 333 µM)
- MIC [10]: < 1 µg/mL
- MIC [11]: 1 to 3.5 µg/mL (≈ 2.22 to 7.77 µM)
- MIC [12]: 1 to 3.5 µg/mL (≈ 2.22 to 7.77 µM)
- MIC [13]: 3.5 to 12.5 µg/mL (≈ 7.77 to 27.7 µM)
- MIC [14]: 12.5 to 150 µg/mL (≈ 27.7 to 333 µM)

SMILES: CCc1c(-c2ccc3c(c2)cc(CN2CCC(C(C)(C)N)C2)n3C)[nH]c(=O)c(C(=O)O)c1O (stereo not drawn) [Cpd 185, 6-(2-((3-(2-aminopropan-2-yl)pyrrolidin-1-yl)methyl)-1-methyl-1H-indol-5-yl)-5-ethyl-4-hydroxy-2-oxo-1,2-dihydropyridine-3-carboxylic acid]
- MIC [1]: 12.5 to 150 µg/mL (≈ 27.6 to 331 µM)
- MIC [2]: 12.5 to 150 µg/mL (≈ 27.6 to 331 µM)
- MIC [3]: 1 to 3.5 µg/mL (≈ 2.21 to 7.73 µM)
- MIC [4]: 12.5 to 150 µg/mL (≈ 27.6 to 331 µM)
- MIC [5]: < 1 µg/mL
- MIC [6]: 1 to 3.5 µg/mL (≈ 2.21 to 7.73 µM)
- MIC [7]: 1 to 3.5 µg/mL (≈ 2.21 to 7.73 µM)
- MIC [8]: 12.5 to 150 µg/mL (≈ 27.6 to 331 µM)
- MIC [9]: 12.5 to 150 µg/mL (≈ 27.6 to 331 µM)
- MIC [10]: < 1 µg/mL
- MIC [11]: 1 to 3.5 µg/mL (≈ 2.21 to 7.73 µM)
- MIC [12]: 1 to 3.5 µg/mL (≈ 2.21 to 7.73 µM)
- MIC [13]: 12.5 to 150 µg/mL (≈ 27.6 to 331 µM)
- MIC [14]: 3.5 to 12.5 µg/mL (≈ 7.73 to 27.6 µM)
